Laboratory results from publication PMC6384781, “Design, Synthesis, Docking Studies and Monoamine Oxidase Inhibition of a Small Library of 1-acetyl- and 1-thiocarbamoyl-3,5-diphenyl-4,5-dihydro-(1H)-pyrazoles” (Molecules, 2019).

Columns and labels:
hMAO-A = molecular target: T1, hMAO-A (Homo sapiens, UniProt P21397); assay: hMAO-A inhibition, Amplex Red fluorometric assay with kynuramine substrate; assay type: biochemical; details: for IC50 / IC50 hMAO-A: recombinant hMAO-A, kynuramine 50 µM, mean ± SD of triplicate, max tested 100 µM; for fold difference of hMAO-A inhibition, (R)-enantiomer versus (S)-enantiomer: (R)- compared with (S)-enantiomer of the same compound
T1 construct: purchased Sigma-Aldrich; host or cells: insect cells (microsomes)
T1 sequence (P21397 1-527): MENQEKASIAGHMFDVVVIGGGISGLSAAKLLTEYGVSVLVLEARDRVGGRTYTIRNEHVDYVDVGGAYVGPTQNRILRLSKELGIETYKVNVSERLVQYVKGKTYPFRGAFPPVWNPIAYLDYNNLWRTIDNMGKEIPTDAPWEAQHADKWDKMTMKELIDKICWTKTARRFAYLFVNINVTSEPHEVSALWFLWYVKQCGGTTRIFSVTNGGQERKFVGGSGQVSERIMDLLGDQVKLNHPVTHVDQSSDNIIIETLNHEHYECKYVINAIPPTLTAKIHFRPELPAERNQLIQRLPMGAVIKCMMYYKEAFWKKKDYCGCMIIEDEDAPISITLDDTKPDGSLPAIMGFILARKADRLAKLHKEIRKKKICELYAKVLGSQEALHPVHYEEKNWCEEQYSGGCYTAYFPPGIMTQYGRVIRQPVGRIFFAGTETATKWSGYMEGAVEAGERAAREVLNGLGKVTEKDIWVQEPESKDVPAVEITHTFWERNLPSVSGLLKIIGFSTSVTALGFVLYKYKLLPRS
Description: (§1) The synthesized compounds P1–P18 were evaluated as hMAO inhibitors using the recombinant hMAOs as enzyme sources and kynuramine as substrate. A fluorometric method based on the Amplex® Red reagent (λex = 560 nm; λem = 590 nm) was used to measure hMAO activity. In this horseradish peroxidase-linked assay, Amplex® Red reacts with hydrogen peroxide that is produced by the MAO catalytic cycle to yield a fluorescent product, resorufin [28]. By thus recording the MAO-catalyzed formation of hydrogen peroxide in the presence of different concentrations of a test inhibitor, sigmoidal plots of enzyme activity versus the logarithm of inhibitor concentration were constructed from which IC50 values were estimated (GraphPad Prism 5). All IC50 values were measured in triplicate and are expressed as the mean ± standard deviation (SD). The inhibitory activities of compounds P1–P18 are summarized in Table 1 along with selectivity index (SI) values which are the ratio of IC50(hMAO-A)/IC50(hMAO-B). SI < 1 indicates selectivity for MAO-A, whereas SI > 1 indicates selectivity for the MAO-B isoform.
(§2) Microsomes from insect cells expressing recombinant hMAO-A or hMAO-B (5 mg protein/mL) served as enzyme sources, and were pre-aliquoted and stored at −70 °C. All enzymatic reactions were carried out to a final volume of 200 µL in black 96-well microtiter plates (Corning). Potassium phosphate buffer (100 mM, pH 7.4, made isotonic with KCl) served as reaction solvent. The reactions contained kynuramine (50 µM), various concentrations of the test inhibitor (0.003–100 μM), horseradish peroxidase (1 unit/mL) and Amplex® Red (200 µM). Stock solutions of the test inhibitors were prepared in DMSO and added to the reactions to yield a final concentration of 4% (v/v) DMSO. The reactions were initiated with the addition of hMAO-A (0.0075 mg protein/mL) or hMAO-B (0.015 mg protein/mL), and incubated at 37 °C for 20 min in a convection oven. At endpoint, the reactions were terminated with the addition of 10 μL pargyline (20 mM) and 10 μL (R)-deprenyl (5 mM) for hMAO-A and hMAO-B, respectively. The concentrations of resorufin in the reactions were determined by fluorescence spectrophotometry (λex = 560 nm, λem = 590 nm). Resorufin was quantitated with a linear calibration curve, which was constructed from standard solutions containing hydrogen peroxide (0.05–1.6 µM). Each standard was prepared to a final volume of 200 μL in potassium phosphate buffer and also contained horseradish peroxidase (1 unit/mL), Amplex® Red (200 µM), 4% DMSO as co-solvent, 10 μL pargyline (20 mM) for hMAO-A and 10 μL (R)-deprenyl (5 mM) for hMAO-B. The IC50 values were determined by constructing sigmoidal curves of MAO catalytic activity versus the logarithm of inhibitor concentration. For this purpose, the one site competition model incorporated into the Prism 5 software package (GraphPad, San Diego, CA, USA) was used. All experiments were carried out in triplicate and the IC50 values are expressed as mean ± standard deviation (SD).

hMAO-B = molecular target: T2, hMAO-B (Homo sapiens, UniProt P27338); assay: hMAO-B inhibition, Amplex Red fluorometric assay with kynuramine substrate; assay type: biochemical; details: for SI (selectivity index for the hMAO-B isoform): ratio IC50(hMAO-A)/IC50(hMAO-B), SI > 1 = MAO-B selective; for IC50 / IC50 hMAO-B: recombinant hMAO-B, kynuramine 50 µM, mean ± SD of triplicate, max tested 100 µM
T2 construct: purchased Sigma-Aldrich; host or cells: insect cells (microsomes)
T2 sequence (P27338 1-520): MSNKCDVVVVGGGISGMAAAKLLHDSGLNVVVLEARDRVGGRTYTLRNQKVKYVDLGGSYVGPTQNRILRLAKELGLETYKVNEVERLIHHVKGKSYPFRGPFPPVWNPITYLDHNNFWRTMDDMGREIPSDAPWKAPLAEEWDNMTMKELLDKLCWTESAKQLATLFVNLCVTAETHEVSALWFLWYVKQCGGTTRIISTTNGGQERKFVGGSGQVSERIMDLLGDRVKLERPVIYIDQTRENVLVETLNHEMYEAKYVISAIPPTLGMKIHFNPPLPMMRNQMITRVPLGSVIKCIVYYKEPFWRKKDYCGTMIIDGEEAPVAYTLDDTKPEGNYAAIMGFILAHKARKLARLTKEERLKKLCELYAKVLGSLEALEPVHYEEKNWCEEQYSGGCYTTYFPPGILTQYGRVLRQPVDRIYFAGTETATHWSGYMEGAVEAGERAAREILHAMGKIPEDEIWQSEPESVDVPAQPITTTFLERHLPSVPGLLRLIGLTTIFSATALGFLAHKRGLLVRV
Description: as §1, §2

Structure (SMILES)	IC50 (hMAO-A) [µM]	SI (selectivity index for the hMAO-B isoform) (hMAO-B)	IC50 (hMAO-B) [µM]	fold difference of hMAO-A inhibition, (R)-enantiomer versus (S)-enantiomer (hMAO-A) [fold]	fold higher hMAO-B inhibitory activity, (R)-enantiomer versus (S)-enantiomer (hMAO-B; (R)- compared with (S)-enantiomer of the same compound) [fold]	IC50 hMAO-A (hMAO-A)	melting point [°C]	fold higher inhibitory activity for hMAO-A than for hMAO-B (hMAO-A; hMAO-A versus hMAO-B) [fold]	IC50 hMAO-B (hMAO-B)
COc1ccc(C2=NN(C(N)=S)[C@@H](c3ccccc3)C2)cc1 [(R)-P1]	50.6 ± 2.67	<0.51	> 100	–	–	–	–	–	–
CCOc1ccc(C2=NN(C(N)=S)[C@@H](c3ccccc3)C2)cc1 [(R)-P2]	33.9 ± 1.29	<0.34	> 100	–	–	–	–	–	–
CCCOc1ccc(C2=NN(C(N)=S)[C@@H](c3ccccc3)C2)cc1 [(R)-P3]	8 ± 0.83	2.89	2.77 ± 0.39	–	–	–	–	–	–
CCCCOc1ccc(C2=NN(C(N)=S)[C@@H](c3ccccc3)C2)cc1 [(R)-P4]	3.63 ± 0.5	9.55	0.38 ± 0.06	10	–	–	–	–	–
CCCCCOc1ccc(C2=NN(C(N)=S)[C@@H](c3ccccc3)C2)cc1 [(R)-P5]	3.03 ± 0.6	6.89	0.44 ± 0.028	18	6	–	–	–	–
COc1ccc(C2=NN(C(N)=S)[C@H](c3ccccc3)C2)cc1 [(S)-P1]	46.6 ± 2.62	<0.47	> 100	–	–	–	–	–	–
CCOc1ccc(C2=NN(C(N)=S)[C@H](c3ccccc3)C2)cc1 [(S)-P2]	32.3 ± 4.46	<0.32	> 100	–	–	–	–	–	–
CCCOc1ccc(C2=NN(C(N)=S)[C@H](c3ccccc3)C2)cc1 [(S)-P3]	9.59 ± 0.83	0.23	42.5 ± 2.61	–	–	–	–	–	–
CCCCOc1ccc(C2=NN(C(N)=S)[C@H](c3ccccc3)C2)cc1 [(S)-P4]	39.2 ± 2.15	7.78	5.03 ± 0.88	–	–	–	–	–	–
CCCCCOc1ccc(C2=NN(C(N)=S)[C@H](c3ccccc3)C2)cc1 [(S)-P5]	55.2 ± 2.72	19.77	2.79 ± 0.87	–	–	–	–	–	–
CC(C)=CCCC(C)=CCOc1ccc(C2=NN(C(N)=S)C(c3ccccc3)C2)cc1 (stereo not drawn) [Compound P6, 3-(4-((3,7-dimethylocta-2,6-dien-1-yl)oxy)phenyl)-5-phenyl-4,5-dihydro-1H-pyrazole-1-carbothioamide]	> 100	>1.85	54.1 ± 7.54	–	–	ineffective	–	–	–
C=CCOc1ccc(C2=NN(C(C)=O)C(c3ccccc3)C2)cc1 (stereo not drawn) [Compound P7, 1-(3-(4-(allyloxy)phenyl)-5-phenyl-4,5-dihydro-1H-pyrazol-1-yl)ethan-1-one]	39.3 ± 5.94	2.72	14.5 ± 2.78	–	–	–	95 to 98	–	–
CC(=O)N1N=C(c2ccc(OCC=C(C)C)cc2)CC1c1ccccc1 (stereo not drawn) [Compound P8]	> 100	>43.67	2.29 ± 0.42	–	–	–	–	–	–
CC(=O)N1N=C(c2ccc(OCC=C(C)C)cc2)CC1c1ccccc1C (stereo not drawn) [Compound P9, 1-(3-(4-((3-methylbut-2-en-1-yl)oxy)phenyl)-5-(o-tolyl)-4,5-dihydro-1H-pyrazol-1-yl)ethan-1-one]	9.13 ± 0.34	0.33	27.3 ± 0.57	–	–	–	110 to 112	3	–
CC(=O)N1N=C(c2ccc(OCC=C(C)C)cc2)CC1c1cccc(C)c1 (stereo not drawn) [Compound P10, 1-(3-(4-((3-methylbut-2-en-1-yl)oxy)phenyl)-5-(m-tolyl)-4,5-dihydro-1H-pyrazol-1-yl)ethan-1-one]	86.8 ± 14.7	26.96	3.22 ± 0.48	–	–	–	120 to 122	–	–
CC(=O)N1N=C(c2ccc(OCC=C(C)C)cc2)CC1c1ccc(C)cc1 (stereo not drawn) [Compound P11, 1-(3-(4-((3-methylbut-2-en-1-yl)oxy)phenyl)-5-(p-tolyl)-4,5-dihydro-1H-pyrazol-1-yl)ethan-1-one]	> 100	>8.19	12.2 ± 0.71	–	–	–	–	–	–
CC(=O)N1N=C(c2ccc(OCC=C(C)C)cc2)CC1c1ccc(C)cc1C (stereo not drawn) [Compound P12, 1-(5-(2,4-dimethylphenyl)-3-(4-((3-methylbut-2-en-1-yl)oxy)phenyl)-4,5-dihydro-1H-pyrazol-1-yl)ethan-1-one]	80.6 ± 10	<0.81	> 100	–	–	–	117 to 119	–	–
CC(=O)N1N=C(c2ccc(OCC=C(C)C)cc2)CC1c1ccccc1Cl (stereo not drawn) [Compound P13, 1-(5-(2-chlorophenyl)-3-(4-((3-methylbut-2-en-1-yl)oxy)phenyl)-4,5-dihydro-1H-pyrazol-1-yl)ethan-1-one]	5.74 ± 1.66	1.85	3.11 ± 0.66	–	–	–	131 to 134	–	–
CC(=O)N1N=C(c2ccc(OCC=C(C)C)cc2)CC1c1cccc(Cl)c1 (stereo not drawn) [Compound P14, 1-(5-(3-chlorophenyl)-3-(4-((3-methylbut-2-en-1-yl)oxy)phenyl)-4,5-dihydro-1H-pyrazol-1-yl)ethan-1-one]	4.13 ± 0.26	3.82	1.08 ± 0.05	–	–	–	85 to 88	–	–
CC(=O)N1N=C(c2ccc(OCC=C(C)C)cc2)CC1c1ccc(Cl)cc1 (stereo not drawn) [Compound P15, 1-(5-(4-chlorophenyl)-3-(4-((3-methylbut-2-en-1-yl)oxy)phenyl)-4,5-dihydro-1H-pyrazol-1-yl)ethan-1-one]	12.1 ± 0.14	1.11	11 ± 3.56	–	–	–	–	–	–
CC(=O)N1N=C(c2ccc(OCC=C(C)C)cc2)CC1c1ccc(Cl)cc1Cl (stereo not drawn) [Compound P16, 1-(5-(2,4-dichlorophenyl)-3-(4-((3-methylbut-2-en-1-yl)oxy)phenyl)-4,5-dihydro-1H-pyrazol-1-yl)ethan-1-one]	> 100	–	> 100	–	–	did not inhibit	128 to 130	–	did not inhibit
CC(=O)N1N=C(c2ccc(OCC=C(C)C)cc2)CC1c1ccc(-c2ccccc2)cc1 (stereo not drawn) [Compound P17]	> 100	–	> 100	–	–	devoid of inhibition activity	132 to 135	–	devoid of inhibition activity
